Experimental data: ChEMBL document CHEMBL3988442, “University of Dundee, Small-Polar-MMV Screening Library” (2021)

System: Plasmodium falciparum
Assay: Calibr Malaria Delayed Death Assay SOP
Type: functional, organism-based
Conditions: for IC50: Plasmodium falciparum

SMILES	pIC50	IC50
CN(C[C@H]1CN2CC[C@H]1C[C@@H]2CNC(=O)c1ccco1)c1ccccc1	5.968	1130 nM
O=C([C@@H]1Cc2[nH]cnc2CN1Cc1cc2ccccc2o1)N1CCCC1	5.967	1090 nM
COc1ccc2[nH]c(C[C@@H]3C[C@@H](C(C)C)[C@H](CN(C)C)C=C3C)nc2c1	6.245	615 nM
CN1CC[C@H](N(Cc2ccccc2)Cc2ccccc2)C[C@H](O)C1	6.066	897 nM
CN1CC[C@H](N(Cc2ccccc2)CC2CC2)C[C@H](O)C1	5.964	1570 nM
CC(C)n1ncc2c1NC(=O)CC21C(=O)Nc2c(Cl)ccc(Cl)c21 (stereo not given)	5.929	1080 nM
O=S(=O)(NCC(c1ccsc1)N1CCCCCC1)c1cccs1 (stereo not given)	6.118	904 nM
Cc1cc(CN2CCC(CNS(=O)(=O)c3ccc(Br)s3)CC2)c(C)o1	6.178	639 nM
COc1ccc(NC(=O)Nc2cnc(N3CCN(C)CC3)nc2)cc1Cl	6.139	843 nM
CN(C)CC1CSCCCN1S(=O)(=O)Cc1cccc(F)c1 (stereo not given)	6.26	751 nM
Cc1cc(S(=O)(=O)N2CCC(N3CCC(O)C3)CC2)c(Cl)cc1Cl (stereo not given)	5.897	958 nM
NCC1[C@H]2CN(Cc3cccc(Cl)c3)C[C@@H]12 (stereo not given in full)	6.278	553 nM
COc1ccc(N2CCCC3(C2)CN(c2nncs2)CCO3)cc1 (stereo not given)	6.845	173 nM
COc1cccc(-n2ccc3nc(N4CCCC4)ncc3c2=O)c1	5.801	1470 nM
O=C(Cn1ccc2ccc(Br)cc21)NC[C@@H]1CCCN2CCCC[C@H]12	5.89	1280 nM
Cc1ccc(CNC(C)c2cc(F)ccc2N2CCN(C)CC2)o1 (stereo not given)	6.454	329 nM
CCC(CC)(CN)NC(C)c1ccccc1 (stereo not given)	6.003	924 nM
Cc1cnn(CCNCc2nccn2Cc2ccccc2)c1	6.212	395 nM
Cn1ccnc1C(O)(CCNCc1ccc(Cl)o1)C(F)(F)F (stereo not given)	5.844	1740 nM
CC(O)CN1CCC(CN(C)Cc2cc(F)cc3cccnc23)CC1 (stereo not given)	5.98	1120 nM

SMILES	pIC50	IC50
CN(Cc1cc(F)cc2cccnc12)CC1CCN(CCO)CC1	6.165	835 nM
CN(Cc1cc(Cl)cc2cccnc12)CC1CCN(CCO)CC1	6.604	346 nM
CC(C)(NCc1cccc(O)c1)c1ccc2c(c1)OCO2	5.935	894 nM
c1cc(N2CCC(CN3CCOCC3)CC2)c2sccc2n1	6.066	867 nM
CNC(=O)CCN(C)CC1(c2ccc(Br)cc2)CC1	6.438	340 nM
CC(NCCc1nccn1Cc1ccccc1)c1cccs1 (stereo not given)	5.98	1290 nM
CC(NCCc1nccn1Cc1ccccc1)c1ccsc1 (stereo not given)	6.094	1000 nM
Cc1ccc(C(C)NCCc2nccn2Cc2ccccc2)o1 (stereo not given)	5.88	1260 nM
CN1CCC(O)(CNCc2ccc(F)c(C(F)(F)F)c2)CC1	6.096	750 nM
CN(C)CCN(Cc1cccnc1)C(=O)c1ccn(-c2ccccc2)n1	5.955	876 nM
O=C(CC1CCCC1)NCCNCc1cccc2c1OCCO2	6.128	938 nM
CCN1CCCN(S(=O)(=O)c2cc3ccccc3o2)CC1	6.321	532 nM
Cc1cccc(OC(C)C(=O)NCC2(N(C)C)CCCC2)c1 (stereo not given)	6.11	760 nM
CCN(CC1CN(Cc2nc(C3CC3)no2)CCO1)c1cccnn1 (stereo not given)	5.75	1860 nM
CC(C)(C)C(=O)NCCNCc1ccc(Cl)c2cccnc12	6.099	703 nM
Fc1ccc2c(C3=CCN(Cc4nnc(C5CCC5)o4)CC3)c[nH]c2c1	5.905	1700 nM
CCOc1ccc(Br)cc1C1CCCCN1.Cl (stereo not given)	6.053	737 nM
CCOc1ccc(Cl)cc1C1CCCCN1.Cl (stereo not given)	6.229	612 nM
Cc1c(C)n(CC(O)CN2CCN(CCO)CC2)c2c(Cl)cccc12.Cl (stereo not given)	6.075	950 nM
Cc1cc(C)c(CNCC(O)c2ccc(F)c(F)c2)c(C)c1.Cl (stereo not given)	6.932	125 nM

SMILES	pIC50	IC50
O=C(O)C(F)(F)F.c1ccc(C[C@H]2CN(C3CCOCC3)CC[C@H]2OCC2CC2)cc1	6.236	757 nM
CN1CCC2(CCCN(c3nccc(C(F)(F)F)n3)C2)CC1.O=C(O)C(F)(F)F	6.246	771 nM
CC(C)N1CCC2(CCCN(c3nccc(C(F)(F)F)n3)C2)CC1.O=C(O)C(F)(F)F	6.114	550 nM
O=C(O)C(F)(F)F.c1ccc(N2CCCC3(CCN(Cc4ccsc4)C3)C2)nc1 (stereo not given)	6.157	842 nM
O=C(O)C(F)(F)F.c1ccc(NC[C@@H]2CCC[C@@H]3CN(Cc4cccnc4)C[C@@H]32)nc1	5.946	1220 nM
CC(C)Oc1ncnc2c1CCN(Cc1ccco1)CC2.O=C(O)C(F)(F)F	6.106	1020 nM
Cc1ccc(CN2CCC3(CC2)CCN(Cc2ccco2)CC3)cc1.O=C(O)C(F)(F)F.O=C(O)C(F)(F)F	6.236	555 nM
Cc1ccc(CN2CCCC3(CCN(Cc4ccoc4)CC3)C2)cc1.O=C(O)C(F)(F)F.O=C(O)C(F)(F)F	6.068	1110 nM
O=C(O)C(F)(F)F.O=C(O)C(F)(F)F.c1cncc(N2CCCC3(CCN(CCN4CCCC4)CC3)C2)c1	5.977	1020 nM
CCN1CCC2(CC1)CC(NCc1cccs1)c1ccccc1O2.O=C(O)C(F)(F)F.O=C(O)C(F)(F)F (stereo not given)	6.431	287 nM
O=C(O)C(F)(F)F.O=C(O)C(F)(F)F.O=C(O)C(F)(F)F.c1ccc(CN2CCCC3(CCN(Cc4cccs4)C3)C2)nc1 (stereo not given)	6.204	735 nM
Cc1ccc(CN2CC[C@H]3[C@H](CC(Cn4cccn4)N3C)C2)s1.O=C(O)C(F)(F)F.O=C(O)C(F)(F)F.O=C(O)C(F)(F)F (stereo not given in full)	6.142	814 nM
CN1[C@H](Cn2cccn2)C[C@@H]2CN(Cc3cccs3)CC[C@@H]21.O=C(O)C(F)(F)F.O=C(O)C(F)(F)F.O=C(O)C(F)(F)F	6.221	593 nM
CCN1CCC2(CC1)CC(NCc1cccc(C)n1)c1ccccc1O2.O=C(O)C(F)(F)F.O=C(O)C(F)(F)F.O=C(O)C(F)(F)F (stereo not given)	6.22	780 nM
CCN1CCC2(CC1)CC(NCc1ccncc1)c1ccccc1O2.O=C(O)C(F)(F)F.O=C(O)C(F)(F)F.O=C(O)C(F)(F)F (stereo not given)	6.198	579 nM
Br.Cc1cc(C)c(N(CC(O)CNCc2ccccc2)S(C)(=O)=O)c(C)c1 (stereo not given)	6.525	355 nM
Br.CCOc1ccc(Br)cc1C1CCCN1 (stereo not given)	6.082	534 nM
I.c1cc2c(cc1C1(CNC3=NCCN3)CCCC1)OCCO2	6.321	547 nM
Clc1ccc(C2(CNC3=NCCN3)CC2)cc1.I	6.323	505 nM
Clc1ccc(C2(CNC3=NCCN3)CCCC2)cc1.I	6.736	226 nM
